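Dose response: 5 concentrations. Exposure: 48 h. Format: 96-well plates. Endpoint: linear interpolation; highest concentration if not reached. Abbreviation: GI50, concentration required for 50% inhibition of growth.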 Activity calls are given as the source filed them. Cut-off read from the data, not from the text of the source: active = GI50 up to about 1.1 µM and inactive = higher.
Legend:
Assay in all cases: NCI anticancer screen, dose series, 48 h
SF-295 = test system: SF-295
OVCAR-8 = test system: OVCAR-8
SK-OV-3 = test system: SK-OV-3
M14 = test system: M14
HCC 2998 = test system: HCC 2998
KM12 = test system: KM12
SN12C = test system: SN12C
A498 = test system: A498
SW-620 = test system: SW-620
EKVX = test system: EKVX
HCT-116 = test system: HCT-116
NCI-H522 = test system: NCI-H522
SK-MEL-28 = test system: SK-MEL-28
786-0 = test system: 786-0
HT-29 = test system: HT-29
MCF7 = test system: MCF7
K562 = test system: K562
SK-MEL-2 = test system: SK-MEL-2
PC-3 = test system: PC-3

SMILES | GI50 (SF-295) | GI50 (OVCAR-8) | GI50 (SK-OV-3) | GI50 (M14) | GI50 (HCC 2998) | GI50 (KM12) | GI50 (SN12C) | GI50 (A498) | GI50 (SW-620) | GI50 (EKVX) | GI50 (HCT-116) | GI50 (NCI-H522) | GI50 (SK-MEL-28) | GI50 (786-0) | GI50 (HT-29) | GI50 (MCF7) | GI50 (K562) | GI50 (SK-MEL-2) | GI50 (PC-3)
COc1ccc(NCc2cnc3nc(N)nc(N)c3c2C)cc1 | 0.41 µM (active) | 0.167 µM (active) | 4.34 µM (inactive) | 1.69 µM (inactive) | 12.7 µM (inactive) | 6.41 µM (inactive) | 3.85 µM (inactive) | > 100 µM (inactive) | 0.914 µM (active) | 15.7 µM (inactive) | 0.0785 µM (active) | 5.52 µM (inactive) | 8.51 µM (inactive) | 0.254 µM (active) | 0.406 µM (active) | 2.13 µM (inactive) | 0.0486 µM (active) | > 100 µM (inactive) | –
COC(=O)c1c(N)n[nH]c1N | > 100 µM (inactive) | > 100 µM (inactive) | > 100 µM (inactive) | > 100 µM (inactive) | > 100 µM (inactive) | > 100 µM (inactive) | > 100 µM (inactive) | > 100 µM (inactive) | > 100 µM (inactive) | > 100 µM (inactive) | > 100 µM (inactive) | > 100 µM (inactive) | > 100 µM (inactive) | > 100 µM (inactive) | – | – | > 100 µM (inactive) | > 100 µM (inactive) | –
CC(CCc1ccc2c(c1)c(N)c1ccc(N)cc1[n+]2[O-])CC(C)(C)C (configuration not stated) | 1.76 µM (inactive) | 1.72 µM (inactive) | – | 1.75 µM (inactive) | 1.55 µM (inactive) | 1.99 µM (inactive) | 1.79 µM (inactive) | 1.89 µM (inactive) | 1.68 µM (inactive) | 1.67 µM (inactive) | 1.93 µM (inactive) | – | 2.06 µM (inactive) | 1.5 µM (inactive) | 1.22 µM (inactive) | – | 0.621 µM (active) | 1.77 µM (inactive) | –
CC(C)(C)OC(=O)n1cc(C2CNC(=O)C23CCC(=O)N3Cc2ccccc2)c2ccccc21 (configuration not stated) | 17.7 µM (inactive) | – | 26.2 µM (inactive) | 27.4 µM (inactive) | – | 25.5 µM (inactive) | 16.7 µM (inactive) | 20 µM (inactive) | 33.5 µM (inactive) | 22.4 µM (inactive) | 32.7 µM (inactive) | 17.8 µM (inactive) | – | 24.7 µM (inactive) | 19.1 µM (inactive) | 27.9 µM (inactive) | 41.1 µM (inactive) | 17.2 µM (inactive) | 25.6 µM (inactive)
Cc1cc(C)nc(NS(=O)(=O)c2ccc(NC(=O)NC(F)(F)F)cc2)n1 | – | > 100 µM (inactive) | > 100 µM (inactive) | > 100 µM (inactive) | > 100 µM (inactive) | – | > 100 µM (inactive) | > 100 µM (inactive) | > 100 µM (inactive) | > 100 µM (inactive) | > 100 µM (inactive) | – | > 100 µM (inactive) | > 100 µM (inactive) | > 100 µM (inactive) | – | > 100 µM (inactive) | > 100 µM (inactive) | > 100 µM (inactive)
O=C1NCC2(CCN(CCCC3(c4ccc(F)cc4)OCCO3)CC2)N1c1ccccc1 | > 100 µM (inactive) | > 100 µM (inactive) | – | > 100 µM (inactive) | > 100 µM (inactive) | > 100 µM (inactive) | > 100 µM (inactive) | 86.3 µM (inactive) | 32.7 µM (inactive) | > 100 µM (inactive) | > 100 µM (inactive) | > 100 µM (inactive) | > 100 µM (inactive) | > 100 µM (inactive) | 84.5 µM (inactive) | – | > 100 µM (inactive) | > 100 µM (inactive) | > 100 µM (inactive)
Clc1ccc(C(n2cc(Br)cn2)n2cc(Br)cn2)cc1 | 15 µM (inactive) | 18.5 µM (inactive) | 35.1 µM (inactive) | 16.8 µM (inactive) | 16.4 µM (inactive) | 13.5 µM (inactive) | 16.8 µM (inactive) | 18.3 µM (inactive) | 17 µM (inactive) | 19.7 µM (inactive) | – | 13.3 µM (inactive) | 17.8 µM (inactive) | 14.1 µM (inactive) | 13.2 µM (inactive) | – | 18 µM (inactive) | 16.8 µM (inactive) | –
NC(=O)C1=NNc2ccccc2C(=O)N1c1ccccc1 | > 100 µM (inactive) | > 100 µM (inactive) | > 100 µM (inactive) | > 100 µM (inactive) | – | > 100 µM (inactive) | > 100 µM (inactive) | > 100 µM (inactive) | > 100 µM (inactive) | > 100 µM (inactive) | > 100 µM (inactive) | > 100 µM (inactive) | > 100 µM (inactive) | > 100 µM (inactive) | > 100 µM (inactive) | > 100 µM (inactive) | – | > 100 µM (inactive) | > 100 µM (inactive)
Oc1ccc2c(c1)c1c(n2CCN2CCOCC2)-c2ccccc2CC1 | 36.4 µM (inactive) | 33.6 µM (inactive) | 42.2 µM (inactive) | 26.3 µM (inactive) | – | 17.8 µM (inactive) | 41.8 µM (inactive) | 20.2 µM (inactive) | 30.1 µM (inactive) | 35.5 µM (inactive) | 37.2 µM (inactive) | – | 18.6 µM (inactive) | 57.8 µM (inactive) | 24.2 µM (inactive) | 31.6 µM (inactive) | 27.9 µM (inactive) | 23.1 µM (inactive) | 29.2 µM (inactive)
CC(=O)Nc1c(S(=O)(=O)c2ccccc2)c(C)c(C)n1Cc1ccccc1 | > 100 µM (inactive) | > 100 µM (inactive) | > 100 µM (inactive) | > 100 µM (inactive) | > 100 µM (inactive) | 49.2 µM (inactive) | > 100 µM (inactive) | > 100 µM (inactive) | > 100 µM (inactive) | > 100 µM (inactive) | > 100 µM (inactive) | > 100 µM (inactive) | > 100 µM (inactive) | > 100 µM (inactive) | > 100 µM (inactive) | – | > 100 µM (inactive) | > 100 µM (inactive) | 44.9 µM (inactive)
Cc1c(NC(=O)c2cc([N+](=O)[O-])cc([N+](=O)[O-])c2)c(=O)n(-c2ccccc2)n1C | – | > 100 µM (inactive) | > 100 µM (inactive) | > 100 µM (inactive) | – | 82.2 µM (inactive) | > 100 µM (inactive) | > 100 µM (inactive) | > 100 µM (inactive) | – | > 100 µM (inactive) | – | > 100 µM (inactive) | > 100 µM (inactive) | 33.2 µM (inactive) | 61.7 µM (inactive) | > 100 µM (inactive) | > 100 µM (inactive) | 49.8 µM (inactive)
CN1C(=O)C2CCCC(=O)N2c2cccnc21 (configuration not stated) | > 100 µM (inactive) | > 100 µM (inactive) | – | – | > 100 µM (inactive) | > 100 µM (inactive) | > 100 µM (inactive) | – | > 100 µM (inactive) | > 100 µM (inactive) | > 100 µM (inactive) | > 100 µM (inactive) | > 100 µM (inactive) | > 100 µM (inactive) | > 100 µM (inactive) | > 100 µM (inactive) | > 100 µM (inactive) | 32.4 µM (inactive) | –
CC1(C(=O)O)CCCC1C(=O)O (configuration not stated) | > 100 µM (inactive) | > 100 µM (inactive) | – | > 100 µM (inactive) | – | > 100 µM (inactive) | > 100 µM (inactive) | > 100 µM (inactive) | > 100 µM (inactive) | > 100 µM (inactive) | > 100 µM (inactive) | > 100 µM (inactive) | > 100 µM (inactive) | > 100 µM (inactive) | > 100 µM (inactive) | – | > 100 µM (inactive) | > 100 µM (inactive) | > 100 µM (inactive)
N#CCCC(CC#N)N1CCN(CCO)CC1 (configuration not stated) | > 100 µM (inactive) | > 100 µM (inactive) | > 100 µM (inactive) | > 100 µM (inactive) | > 100 µM (inactive) | > 100 µM (inactive) | > 100 µM (inactive) | > 100 µM (inactive) | > 100 µM (inactive) | > 100 µM (inactive) | > 100 µM (inactive) | – | > 100 µM (inactive) | > 100 µM (inactive) | > 100 µM (inactive) | > 100 µM (inactive) | > 100 µM (inactive) | – | –
O=C(O)CCC(NC(=O)c1ccc(CNc2nc3cc(C(F)(F)F)ccc3nc2C(=O)O)cc1)C(=O)O (configuration not stated) | > 100 µM (inactive) | > 100 µM (inactive) | > 100 µM (inactive) | > 100 µM (inactive) | > 100 µM (inactive) | > 100 µM (inactive) | – | > 100 µM (inactive) | > 100 µM (inactive) | > 100 µM (inactive) | > 100 µM (inactive) | > 100 µM (inactive) | > 100 µM (inactive) | > 100 µM (inactive) | > 100 µM (inactive) | – | > 100 µM (inactive) | > 100 µM (inactive) | > 100 µM (inactive)
BrC(c1cccc2ccccc12)c1cccc2ccccc12 | 25.5 µM (inactive) | 17.3 µM (inactive) | – | 17.3 µM (inactive) | – | 15.5 µM (inactive) | 14.3 µM (inactive) | 17.6 µM (inactive) | 16.7 µM (inactive) | 16.7 µM (inactive) | 6.61 µM (inactive) | 10.9 µM (inactive) | 19.5 µM (inactive) | 13.7 µM (inactive) | 18.3 µM (inactive) | – | > 100 µM (inactive) | 14.9 µM (inactive) | 22.1 µM (inactive)
O=C(CCCn1ccnc1[N+](=O)[O-])NCCn1cnc([N+](=O)[O-])n1 | > 100 µM (inactive) | > 100 µM (inactive) | > 100 µM (inactive) | > 100 µM (inactive) | – | > 100 µM (inactive) | > 100 µM (inactive) | > 100 µM (inactive) | > 100 µM (inactive) | – | > 100 µM (inactive) | > 100 µM (inactive) | > 100 µM (inactive) | > 100 µM (inactive) | > 100 µM (inactive) | > 100 µM (inactive) | > 100 µM (inactive) | > 100 µM (inactive) | > 100 µM (inactive)
